Series [1] can be described thus: Stability assay, resistance to degradation in fetal bovine serum. In kind it is in vitro ADME. The conditions noted are these: GIBCO fetal bovine serum, RP-LC peak area, three independent replicates; for Resistance to protease-mediated degradation in fetal bovine serum (in words): followed up to 6 h. The protocol: Fig. 6 Hemolysis and resistance to protease-mediated degradation of engineered peptides. a Schematic of experimental design and hemolytic assay results of Pol-CP-NH2 and derivatives, where hemolytic activity was evaluated by incubating the peptides (0.1–100 μmol L^−1) with human red blood cells in PBS at room temperature for 1 h. Experiments were performed in three independent replicates. b Resistance to degradation of Pol-CP-NH2 and analogs exposed to fetal bovine serum (FBS) proteases for 6 h. Experiments were done in three independent replicates (statistical significance was determined using one-way ANOVA, *p < 0.039, error bars represent standard deviation values)
The resistance to degradation assay is detailed by Powell et al.[89], and peptides were exposed to GIBCO fetal bovine serum. The reaction kinetics were followed by reverse-phase liquid chromatography and the percentage of remaining peptide was calculated by integrating the peptide peak area.

Series [2] can be described thus: Circular dichroism spectroscopy, helical fraction (fH). To be noted: CD. It is filed as physicochemical. The protocol: Fig. 3 Physicochemical features and structure of Pol-CP-NH2 and Ala-scan analogs. a Circular dichroism spectra of Pol-CP-NH2 and Ala-scan derivatives at 50 µmol L^−1 in water, PBS (pH 7.4) and TFE/Water (3:2, v/v) showing peptides transition from unstructured in water to helically structured in TFE/water. Circular dichroism spectra were recorded after four accumulations at 20 °C, using a 1 mm path length quartz cell, between 260 and 190 nm at 50 nm min^-1, with a bandwidth of 0.5 nm. b MIC (µmol L^−1) average for each peptide against the first set of bacteria (E. coli BL21, P. aeruginosa PA01 and PA14, and S. aureus ATCC12600) in three independent replicates vs. fH in TFE/Water solution, where blue boxes represent peptides with lower activity and red boxes show peptides with higher activity compared to the wild-type. Optimal activity is reached in most of the cases for fH values higher than the wild-type
Fig. 4 Physicochemical features and structure of Pol-CP-NH2 and second-generation analogs. Circular dichroism spectra of the peptides at 50 µmol L^−1 in water, MeOH/Water (1:1, v/v), PBS (pH 7.4), POPC (10 mmol L^−1), POPC:DOPE (3:1, 10 mmol L^−1), POPC:POPG (3:1, 10 mmol L^−1), SDS (20 mmol L^−1), TFE/Water (2:3, 3:2, 4:1, v/v) showing peptides transition from unstructured in water to helically structured in TFE/water. Circular dichroism spectra were recorded after four accumulations at 20 °C, using a 1 mm path length quartz cell, between 260 and 190 nm at 50 nm min^−1, with a bandwidth of 0.5 nm
Circular dichroism experiments were performed on a J-815 Circular Dichroism Spectropolarimeter (Jasco). Measurements conditions are described by Torres et al.[84] Peptides at 50 μmol L^−1 were analyzed in ten different environments: water, PBS (pH 7.4), methanol/water (1:1; v-v), TFE/Water (2:3, 3:2 and 4:1; v-v), 10 mmol L^−1 POPC, 10 mmol L^−1 POPC:DOPE (3:1) and 10 mmol L^−1 POPC:POPG (3:1). Vesicles were prepared according to Torres et al.[35]. A Fourier transform filter was applied to minimize background effects.
For orientation: Circular dichroism is the unequal absorption of left and right circularly polarised light.

Series [3] can be described thus: RP-HPLC retention time (correlated with hydrophobicity). In kind it is physicochemical. The conditions noted are these: chromatographic, RP-HPLC Supelcosil C18 (4.6 x 150 mm), 60 Å, 5 μm; A 0.1% TFA/H2O, B 0.1% TFA in 90% ACN/H2O; 5-95% B in 30 minutes; 1.0 mL min-1; 220 nm; correlated with Heliquest hydrophobicity. How it is done:
First, theoretical values of physicochemical features such as hydrophobicity, hydrophobic moment, and net positive charge were calculated, and helical wheels were generated using the Heliquest webserver[31] (Table 1 and Supplementary Figure 1). Hydrophobicity values produced by the server were correlated with retention times obtained by RP-HPLC analyses (Supplementary Table 1), confirming the accuracy of the computational predictions. Next, peptides were synthesized and tested against the Gram-negative bacteria Escherichia coli and Pseudomonas aeruginosa, as well as against the Gram-positive bacterium Staphylococcus aureus. We obtained slightly different results from those reported by Souza et al.[30], who described activity against Gram-positive bacteria but poor activity against Gram-negative species. […] MIC results were confirmed by colony-forming unit (CFU) counts of bacteria after one day of exposure to the peptides (Supplementary Figure 2).
Supplem enta r y Ta b le 1. Summary of Pol-CP-NH2 and desi gned anal ogs.
Label Pep t id e Sequence Molecular Ob s erv ed Pu rit y HPLC HC50 MIC SIe Cyt oto xic it y
Weight Molecular (%)b Retention (µmo l L-1)d Av er a g e (µmo l L-1)
(D a) Weight (D a)a Time (min)c (µmo l L-1)
aLC/ESI-MS data were obtained on a Model 6130 Infinity mass spectrometer coupled to a Model 1260 HPLC system (Agilent), using a Phenomenex Gemini C18 column (2.0 […]

Series [4] has as its system HEK293 human embryonic kidney cells. As to the kind of experiment: Cytotoxicity assay (MTS). It is filed as cell-based. The conditions noted are these: for Cytotoxic concentration relative to MIC against P. aeruginosa: HEK293, 48 h, MTS, compared with MIC against P. aeruginosa; for Cytotoxicity (concentration showing cytotoxic activity): HEK293, 50,000 cells per well, peptides 0-64 μmol L-1, 37 °C, 48 h, MTS assay, three independent replicates. The protocol: Fig. 7 Cytotoxicity of engineered peptides. a Schematic of the experimental design for cytotoxicity assays of Pol-CP-NH2 and derivatives against HEK293 human embryonic kidney cells. Briefly, cells were cultured in DMEM medium supplemented with FBS and antibiotics at 37 °C and 5% CO2 and b results obtained by seeding HEK293 50,000 cells and incubating with peptides’ solution (0–64 μmol L^−1) at 37 °C for 48 h. Cell viability was measured by MTS assay. All experiments were performed in independent triplicates (heat map values represent mean values of three independent replicates)
Human embryonic kidney 293 (HEK 293) cells were cultured in Dulbecco’s Modified Eagle Medium suplemented with 10% Fetal Bovine Serum and 1% penicillin-streptomycin at 37 °C in 5% CO2. The day before treatment, 50,000 HEK 293 cells were seeded into each well in 96-well plates. The peptides were added at concentrations ranging from 0 to 64 μmol L^−1 and 48 h after exposure, cell viability was measured by means of MTS (dimethylthiazol-carboxymethoxyphenyl-sulfophenyl-tetrazolium) assay. Experiments were performed in three independent replicates for each condition.
Background: Tetrazolium assays rely on reduction of a dye to a coloured formazan, in cell work by metabolically active cells.

Series [5] in a line: Toxicity to mice in the skin infection model (body weight). In kind it is in vivo. The conditions noted are these: infected mice treated with 64 μmol L-1 peptide; body weight normalized by non-infected mice. The protocol: Fig. 8 In vivo activity of Pol-CP-NH2 and its analogs. a Schematic of the experimental design. Briefly, the back of mice was shaved and an abrasion was generated to damage the stratum corneum and the upper layer of the epidermis. Subsequently, an aliquot of 50 μL containing 5 × 10^7 CFU of P. aeruginosa in PBS was inoculated over each defined area. […] Four animals per group were euthanized and the area of scarified skin was excised two days post-infection b homogenized using a bead beater for 20 min (25 Hz), and serially diluted for CFU quantification (statistical significance was determined using two-way ANOVA followed by Dunnett’s test, ****p < 0.0001). c Mouse body weight measurements throughout the experiment normalized by the body weight of non-infected mice.
The anti-infective activity of peptides against P. aeruginosa strain PA14 in a mouse model was assessed according to Pane et al.[90] CD-1 IGS female mice (six-weeks-old) were used and maintained in accordance with the Guide for the Care and Use of Laboratory Animals in an AAALAC-accredited facility. All procedures were approved by the MIT’s Institutional Animal Care and Use Committee (IACUC), protocol number 1016-064-19. Two independent experiments were performed with 4 mice per group in each condition. Statistical significance was assessed using a one-way ANOVA.

Entries after “also recorded” stand apart in the source; their conditions may differ. No end group written: not given here.

Consider “GLGTILGLLKSL-NH2 [Peptide 20, [Gly]^1-Pol-CP-NH2]”, for which the “Resistance to protease-mediated degradation in fetal bovine serum (in words)” value (from here on “Resistance”) in series [1] was “degraded in a few minutes”.
As for “ILETKLGLLKSE-NH2 [Peptide 19, [Glu]^3-[Lys]^5-[Glu]^12-Pol-CP-NH2]”, the “Helical fraction fH, MeOH/Water (1:1)” value in series [2] (peptide 50 µmol L-1, MeOH/Water 1:1 v/v, 20 °C) is given as 0.02. The “Helical fraction fH, PBS” value in series [2] (peptide 50 µmol L-1, PBS pH 7.4, 20 °C) is on record as 0.03. For the same substance, the “Helical fraction fH, POPC” value in series [2] (peptide 50 µmol L-1, POPC 10 mmol L-1 vesicles, 20 °C) was determined as 0. Moreover, in series [2] (peptide 50 µmol L-1, POPC:DOPE 3:1 mol:mol 10 mmol L-1 vesicles, 20 °C), the “Helical fraction fH, POPC/DOPE (3:1)” value is on record as 0.03. In addition, the “Helical fraction fH, POPC/POPG (3:1)” value in series [2] (peptide 50 µmol L-1, POPC:POPG 3:1 mol:mol 10 mmol L-1 vesicles, 20 °C) came out at 0.04. The “Helical fraction fH, SDS” value in series [2] (peptide 50 µmol L-1, SDS 20 mmol L-1 micelles, 20 °C) was determined as 0.13. In series [2] (peptide 50 µmol L-1, TFE/Water 2:3 v/v, 20 °C), the “Helical fraction fH, TFE/Water (2:3)” value was 0.24. Also, the “Helical fraction fH, TFE/Water (3:2)” value in series [2] (peptide 50 µmol L-1, TFE/Water 3:2 v/v, 20 °C) came to 0.21. Moreover, the “Helical fraction fH, TFE/Water (4:1)” value in series [2] (peptide 50 µmol L-1, TFE/Water 4:1 v/v, 20 °C) stood at 0.31. Besides, in series [2] (peptide 50 µmol L-1, water, 20 °C, 1 mm cell), the “Helical fraction fH, Water” value stood at 0.05. In series [3], the “HPLC Retention Time” value is 9.2 min.
A word on the fraction remaining: it is what is left of the initial amount, in per cent. Take “ILGKILGLLKSL-NH2 [Peptide 15, [Lys]^4-Pol-CP-NH2]”: the “Cytotoxic concentration relative to MIC against P. aeruginosa” value in series [4] is recorded as “two-fold to four-fold higher than their MICs”. Further, the “Resistance” value in series [1] is given as “increased resistance to protease-mediated degradation”. Also, in series [1] (six hours of exposure, read-out: Remaining peptide after exposure to fetal bovine serum), the amount remaining at 6 h is approximately 50%.
As to “ILGTILGLLKSL-NH2 [WT, Pol-CP-NH2, reference compound]”, the “Cytotoxicity (concentration showing cytotoxic activity)” value in series [4] (listed as wild-type peptide) was 32 µmol/L. The “Toxicity to mice / body weight, in words” value in series [5] is on record as “did not change abruptly”.
On to “ILGTILKLLKSL-NH2 [Peptide 16, [Lys]^7-Pol-CP-NH2]”, for which, in series [4], the “Cytotoxicity (concentration showing cytotoxic activity)” value is 16 µmol/L and the “Cytotoxic concentration relative to MIC against P. aeruginosa” value is reported as “two-fold to four-fold higher than their MICs”. Also, the “Resistance” value in series [1] is “increased resistance to protease-mediated degradation”. Besides, the “Toxicity to mice / body weight, in words” value in series [5] was “did not change abruptly; also recorded: non-toxic to mice”.

(Values after publication PMC6286318, “Structure-function-guided exploration of the antimicrobial peptide polybia-CP identifies activity determinants and generates synthetic therapeutic candidates” (Communications Biology, 2018).)
